# Test results as given in patent publication US20220387457A1 (Qlaris Bio, Inc., priority 2020, published 2022).
# Tests used:
# 5′-nucleotidase = assay: Conversion of CKLP1 by 5′-nucleotidase, LC/MS-MS, pH 7.4; type: biochemical, human; details: up to 2 hours
# Procedure: Conversion of CKLP1 (200 μM-5.0 mM) was examined by LC/MS-MS following incubation at pH 7.4 with either human alkaline phosphatase (ALP), acid phosphatase, or 5′-nucleotidase (2.01 nM-1.0 μM) for up to 2 hours.
# [1] = tested on: normotensive hound dogs (IOP); assay: Dose response of CKLP1 on IOP in hound dogs; type: in vivo, hound dog; details: for IOP lowering: 5 consecutive days, vs baseline
# Procedure: In order to determine the optimal topical ocular dose of CKLP1 for subsequent pharmacokinetic studies, hound dogs (n=3) were treated with four different concentrations of CKLP1 (5 mM, 10 mM, 15 mM and 20 mM) once daily for 5 consecutive days. […] No difference in IOP reduction was noted between the 10 and 15 mM doses (p=0.57). To utilize the lowest dose concentration with effective IOP reduction, a 50 μL topical ocular administration of 10 mM CKLP1 was selected as the optimal dose for all subsequent experiments.
# IOP was measured three times each day at times that corresponded to 1 hour, 4 hours and 23 hours post treatment. The average of the measurements at three time points on any given day was recorded as the daily IOP.
# For the dose response study, baseline IOP measurements were obtained and recorded (three consecutive days prior to treatment). One eye of each dog was treated with a 50 μL topical ocular administration of 5 mM CKLP1 and the contralateral eye was treated with 10 mM CKLP1 once daily for 5 consecutive days. After 5 days, the eyes that received 5 mM CKLP1 was treated with 15 mM CKLP1 while the eye with 10 mM CKLP1 received 20 mM CKLP1. IOPs were measured every day at times corresponding to 1, 4, and 23 hours post treatment. For all experiments, the right eye was used as control while the left eye was selected as the treatment eye.
# [2] = Toxicity and clinical signs after escalating intravenous doses of CKLP1 in beagles; type: in vivo, beagle dog; details: both sexes, beagle, dog, in vivo
# Procedure: (§1) Two beagles (one male and one female) were intravenously injected with escalating doses of CKPL1 (0.05 mg/kg, 0.5 mg/kg, 1.5 mg/kg, 3 mg/kg, and 5 mg/kg) to assess the toxicity of CKLP1. The injection was done through the cephalic vein and CKLP1 was administered in a phosphate buffered saline solution ((0.096% sodium phosphate dibasic, 0.089% sodium dihydrogen orthophosphate monohydrate, 0.83% sodium chloride) pH 6.5±0.1 in sterile water for injection USP). The dosing schedule is shown below in Table 3.
# (§2) The following parameters and endpoints were evaluated: mortality, clinical observations, body and organ weights, and food consumption. Bioanalytical samples for toxicokinetic parameters (for both CKLP1 and leveromakalim) were collected after each dose level (days 1, 3, 8, 10, and 14) at predose, 1, 3, 6, 8, and 24 hours postdose. Animals were released from the study after completion of the bioanalytical sample collection schedule.
# beagles = assay: as above; type: in vivo, beagle dog; details: for dose with red discoloration of the skin: IV
# Procedure: as §1, §2
# rats = assay: 28-day intravenous administration of CKLP1 in rats; type: in vivo, rat
# Text: Three groups of rats were intravenously administered different doses of CKLP1. The study was 28 days long with a 14-day recovery period.
# [3] = tested on: hound dogs (systemic blood pressure); assay: Systemic blood pressure in hound dogs during 61-day topical CKLP1; type: in vivo, hound dog; details: 10 mM CKLP1 topical once daily
# Procedure: To evaluate the effect of IOP lowering long-term, hound dogs (n=5) were treated with 10 mM CKLP1 in one eye and vehicle (PBS) in the contralateral eye once daily for 61 consecutive days. […] On average, IOP was reduced by 18.9±1.3% (reduction of 3.0±0.5 mmHg; p<0.001) in all five hound dogs over the entire treatment period. Additionally, no significant change in systolic (baseline, 141.0±6.7; treatment, 138.9±9.5; p=0.56) or diastolic (baseline, 80.1±8.9; treatment, 78.1±5.9; p=0.76) blood pressure was observed during the treatment period (FIG. 7B). Hound dogs were also evaluated for eye redness, swelling of the eye or eyelids, unusual discharge from eye and overall food intake.
# For the extended dose study, baseline IOPs were measured three times daily for 5 consecutive days. The average of the three measurements was recorded as the daily IOP and averaged over the 5 days for the final pre-treatment value. Following baseline IOP measurements, dogs (n=5) were treated with 10 mM CKLP1 in one eye, while the contralateral eye received vehicle (PBS). IOP was measured at least three times every week at times corresponding to 1, 4, and 23 hours post treatment. Blood pressure was measured three times each week at the 4 hour post treatment time point.
# [4] = tested on: 3D-glaucomatous human trabecular meshwork/Schlemm's canal tissue model; assay: Outflow facility by perfusion in 3D-glaucomatous human trabecular meshwork/Schlemm's canal constructs; type: cell-based; details: levcromakalim 1 μM, TGF-β2 treated constructs, 4 donors, vs TGF-β2 (P<0.0001) or Y-27632 (P<0.05)
# Procedure: Bioengineered 3D conventional outflow tract constructs using 4 donors (ages 47-91) were treated with […] (5 ng/mL) for 6 days. […] Protein expression of α-smooth muscle actin (α-SMA), CD31, endothelin-I, fibronectin, VE-cadherin, phospho-eNOS and total eNOS was analyzed via western blot. Cellular expression of α-SMA, fibronectin, phospho-eNOS and total eNOS was determined by immunocytochemistry and confocal microscopy. Statistical significance was determined by one-way ANOVA with a Tukey's multiple comparisons test, or by two-way ANOVA.
smiles,measurement,setting,value
CC1(C)Oc2ccc(C#N)cc2[C@@H](N2CCCC2=O)[C@@H]1OP(=O)(O)O [CKLP1],conversion of CKLP1 to levcromakalim,5′-nucleotidase,not
same,"IOP lowering, all concentrations","[1]; 5 mM, 10 mM, 15 mM and 20 mM, p≤0.01",significant IOP lowering
same,IOP lowering,[1]; 10 mM CKLP1 topical once daily,2.3±0.5 mmHg
same,IOP lowering,[1]; 15 mM CKLP1 topical once daily,2.5±0.4 mmHg
same,NOAEL,"[2]; iv, read-out: no-observed adverse effect level (NOAEL)",3 mg/kg
same,MTD,"[2]; single escalating IV doses, read-out: maximum tolerated dose (MTD)",3 mg/kg
same,adverse clinical signs,beagles; IV 5 mg/kg,"increased heart rate, warm to touch, and/or partly closed eyes"
same,Clinical Signs,beagles; IV CKLP1 0.5 mg/kg,"red discoloration of the skin (pinnae, gums, generalized"
same,Clinical Signs,beagles; IV CKLP1 1.5 mg/kg,"red discoloration of the skin (pinnae, gums, generalized"
same,Clinical Signs,beagles; IV CKLP1 3 mg/kg,"red discoloration of the skin (pinnae, gums, generalized"
same,Clinical Signs,beagles; IV CKLP1 5 mg/kg,"red discoloration of the skin (pinnae, gums, generalized"
same,histological examination,beagles; escalating IV doses,no systemic toxicity
same,"mortality, body weight, food consumption",beagles; escalating IV doses 0.05-5 mg/kg,"No mortality, change in body weight or food consumption"
same,dose with red discoloration of the skin,beagles; female dog,≥ 0.5 mg/kg
same,peripheral vasodilation,beagles; following intravenous administration in dogs,induces peripheral vasodilation
same,dose with red discoloration of the skin,beagles; male dog,≥ 0.05 mg/kg
same,"food consumption, body weight, body weight gains vs control","rats; IV 0.15, 1.5, 15 mg/kg/day, 28 days",no difference
same,Clinical Signs,rats; IV CKLP1 0.15 mg/kg/day,Red skin forelimbs and hindlimbs; red pinnae; red
same,Clinical Signs,rats; IV CKLP1 1.5 mg/kg/day,Red skin forelimbs and hindlimbs; red skin
same,Clinical Signs,rats; IV CKLP1 15 mg/kg/day,Red skin forelimbs and hindlimbs; red skin
same,peripheral vasodilation,rats; following intravenous administration in rats,induces peripheral vasodilation
same,"dose with red skin forelimbs and hindlimbs, red pinnae, red scrotums","rats; male and female rats, IV",≥ 0.15 mg/kg/day
same,dose with red skin forepaws,"rats; males and females, IV",≥ 1.5 mg/kg/day
same,eye color,"rats; males, 15 mg/kg",Abnormal eye color
same,diastolic blood pressure during treatment,"[3]; baseline 80.1±8.9, p=0.76",78.1±5.9 mmHg
same,systolic blood pressure during treatment,"[3]; baseline 141.0±6.7, p=0.56",138.9±9.5 mmHg
"CC1(C)Oc2ccc(C#N)cc2[C@@H](N2CCCC2=O)[C@@H]1O [Levcromakalim, levcromakalim, reference compound]",outflow facility (hydraulic conductivity),[4],significantly improved outflow facility
same,outflow facility (hydraulic conductivity),[4]; listed as Leveromakalim,significantly increased outflow facility
